Results on twelve molecules are retold here after BindingDB's records for doi:10.1124/mol.64.4.841 (Pohang University of Science and Technology, 2003).

pKi: −log10 of the molar value. Square brackets hold non-standard residues; d marks the D form. Peptide text beside a SMILES is read from it.

The target in this assay is T1, fMet-Leu-Phe receptor (Homo sapiens, UniProt P21462).
T1 sequence (P21462 whole entry): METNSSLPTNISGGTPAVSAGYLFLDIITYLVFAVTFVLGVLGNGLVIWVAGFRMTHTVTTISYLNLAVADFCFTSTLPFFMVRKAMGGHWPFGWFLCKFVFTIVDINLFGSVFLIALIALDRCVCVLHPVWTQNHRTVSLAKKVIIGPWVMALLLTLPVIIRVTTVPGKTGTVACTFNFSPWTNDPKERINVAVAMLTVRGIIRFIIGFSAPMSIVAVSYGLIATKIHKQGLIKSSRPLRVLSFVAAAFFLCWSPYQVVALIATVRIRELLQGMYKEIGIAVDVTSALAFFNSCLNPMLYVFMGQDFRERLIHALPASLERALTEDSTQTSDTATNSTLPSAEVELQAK
`CSCC[C@H](NC(=O)[C@H](Cc1c[nH]cn1)NC(=O)[C@H](CCCCN)NC(=O)[C@@H](N)Cc1c[nH]c2ccccc12)C(=O)N[C@H](C(=O)N[C@H](CCSC)C(N)=O)C(C)C` [WKHMVm-NH2] (H-WKHMV[dM]-NH2) showed a pKi of 6.55.
For `CSCC[C@H](NC(=O)[C@@H](N)Cc1ccc(O)cc1)C(=O)N[C@H](C(=O)N[C@H](CCSC)C(N)=O)C(C)C` [YMVm-NH2] (H-YMV[dM]-NH2), the pKi was 6.25.
In the case of `CSCC[C@H](NC(=O)[C@H](Cc1ccc(O)cc1)NC(=O)[C@H](CCC(=O)O)NC(=O)[C@@H](N)Cc1c[nH]c2ccccc12)C(=O)N[C@H](C(=O)N[C@H](CCSC)C(N)=O)C(C)C` [WEYMVm-NH2] (H-WEYMV[dM]-NH2), the negative-log Ki (pKi) was 6.49.
On to `CSCC[C@H](NC(=O)[C@H](Cc1ccc(O)cc1)NC(=O)[C@H](CC(=O)O)NC(=O)[C@@H](N)Cc1c[nH]c2ccccc12)C(=O)N[C@H](C(=O)N[C@H](CCSC)C(N)=O)C(C)C` [WDYMVm-NH2] (H-WDYMV[dM]-NH2), for which the pKi is 7.00.
With `CSCC[C@H](NC(=O)[C@H](Cc1ccc(O)cc1)NC(=O)[C@H](CCCCN)NC(=O)[C@@H](N)Cc1c[nH]c2ccccc12)C(=O)N[C@@H](Cc1ccc(O)cc1)C(=O)N[C@H](CCSC)C(N)=O` [WKYMYm-NH2] (H-WKYMY[dM]-NH2), the pKi was 6.17.
The result for `CSCC[C@H](NC(=O)[C@H](Cc1ccc(O)cc1)NC(=O)[C@H](CCCCN)NC(=O)[C@@H](N)Cc1c[nH]c2ccccc12)C(=O)N[C@@H](Cc1ccccc1)C(=O)N[C@H](CCSC)C(N)=O` [WKYM(F/W)m-NH2] reads 7.24; that for `CSCC[C@H](NC(=O)[C@H](Cc1ccccc1)NC(=O)[C@H](CCCCN)NC(=O)[C@@H](N)Cc1c[nH]c2ccccc12)C(=O)N[C@H](C(=O)N[C@H](CCSC)C(N)=O)C(C)C` [WKFMVm-NH2] (H-WKFMV[dM]-NH2), 7.74.
Molecule `CSCC[C@H](NC(=O)[C@H](CC(=O)O)NC(=O)[C@H](CCCCN)NC(=O)[C@@H](N)Cc1c[nH]c2ccccc12)C(=O)N[C@H](C(=O)N[C@H](CCSC)C(N)=O)C(C)C` [WKDMVm-NH2] (H-WKDMV[dM]-NH2) showed a pKi of 5.89.
`CSCC[C@H](NC(=O)[C@H](CCC(=O)O)NC(=O)[C@H](CCCCN)NC(=O)[C@@H](N)Cc1c[nH]c2ccccc12)C(=O)N[C@H](C(=O)N[C@H](CCSC)C(N)=O)C(C)C` [WKEMVm-NH2] (H-WKEMV[dM]-NH2): the pKi is 5.88.
The figure for `CSCC[C@H](NC(=O)[C@H](Cc1ccc(O)cc1)NC(=O)[C@H](CCCNC(=N)N)NC(=O)[C@@H](N)Cc1c[nH]c2ccccc12)C(=O)N[C@H](C(=O)N[C@H](CCSC)C(N)=O)C(C)C` [WRYMVm-NH2] (H-WRYMV[dM]-NH2) is 7.26; for `CSCC[C@H](NC(=O)[C@H](Cc1c[nH]c2ccccc12)NC(=O)[C@H](CCCCN)NC(=O)[C@@H](N)Cc1c[nH]c2ccccc12)C(=O)N[C@H](C(=O)N[C@H](CCSC)C(N)=O)C(C)C` [WKWMVm-NH2] (H-WKWMV[dM]-NH2) it is 7.72; for `CSCC[C@H](NC(=O)[C@H](Cc1ccc(O)cc1)NC(=O)[C@H](Cc1c[nH]cn1)NC(=O)[C@@H](N)Cc1c[nH]c2ccccc12)C(=O)N[C@H](C(=O)N[C@H](CCSC)C(N)=O)C(C)C` [WHYMVm-NH2] (H-WHYMV[dM]-NH2) it is 7.49.

What is called pKi is the Ki on a negative log10 scale, so that one unit is a factor of ten. High values mean a low Ki, low ones a high Ki.
